Publication PMC6001238, “Iterative Chemical Engineering of Vancomycin Leads to Novel Vancomycin Analogs With a High in Vitro Therapeutic Index” (Frontiers in Microbiology, 2018)
In brackets after ≈: the same amount, converted by molar mass. Read-outs that look alike come from different tables or passages of the source.

Legend:
MRSA KS89 = experiment: MIC, broth microdilution, MRSA KS89; type: cell-based, Staphylococcus aureus
How it was run: (§1)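 Susceptibility was scored by broth microdilution (CLSI). In one instance each vancomycin analog or control antibiotic was tested in the presence of vancomycin, 10 μM final, and ultrapure water plus non-inoculated broth were included as controls.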

E. faecalis VRE 37 = experiment: MIC, broth microdilution, vancomycin-resistant E. faecalis VRE 37 (VanA); type: cell-based, Enterococcus faecalis; settings: Enterococcus faecalis VRE 37 (vancomycin-resistant); read-out: MIC
How it was run: as §1

MRSA KS1 = experiment: MIC, broth microdilution, MRSA KS1; type: cell-based, Staphylococcus aureus
How it was run: as §1

MRSA KS2 = experiment: MIC, broth microdilution, MRSA KS2; type: cell-based, Staphylococcus aureus
How it was run: as §1

S. aureus VISA/HIP5827 = experiment: MIC, broth microdilution, vancomycin-intermediate S. aureus VISA HIP5827; type: cell-based, Staphylococcus aureus
How it was run: as §1

[1] = tested on: Clostridium difficile AIU ribotype 027; experiment: MIC, plate drop assay, C. difficile AIU ribotype 027; type: cell-based; settings: C. difficile AIU ribotype 027
How it was run: (§2)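 Twofold dilution series of test compounds were spotted onto C. difficile lawns in 0.4% BHI agar containing added calcium and magnesium salts. After overnight anaerobic incubation at 37°C, growth inhibition was scored by spot clearing; triplicate runs, ultrapure water negative control.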

[2] = tested on: Clostridium difficile ATJ ribotype 014/20; experiment: MIC, plate drop assay, C. difficile ATJ ribotype 014/20; type: cell-based; settings: C. difficile ATJ ribotype 014/20
How it was run: as §2

E. faecalis VSE 1 = experiment: MIC, broth microdilution, vancomycin-sensitive E. faecalis (VSE 1); type: cell-based, Enterococcus faecalis; settings: for MIC: read-out: MIC
How it was run: as §1

[3] = tested on: human T-lymphocyte (CEM) cells; experiment: Cytostatic activity, CEM cell proliferation; type: cell-based; settings: mean ± SD of three experiments; highest concentration tested 250 µM; 3 days; read-out: Toxicity (IC50) CEM
How it was run: (§3)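 Suspensions (300,000–500,000 cells/mL) combined with equal volumes of diluted compound; 37°C; L1210 2 d / CEM 3 d / HeLa 4 d; counted by Coulter counter; IC50 vs untreated wells.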

MRSA KS6 = experiment: MIC, broth microdilution, MRSA KS6; type: cell-based, Staphylococcus aureus
How it was run: as §1

E. faecalis VRE 53 = experiment: MIC, broth microdilution, vancomycin-resistant E. faecalis VRE 53 (VanA); type: cell-based, Enterococcus faecalis; settings: for MIC: read-out: MIC
How it was run: as §1

B. subtilis PSB3 = experiment: MIC, broth microdilution, B. subtilis PSB3; type: cell-based, Bacillus subtilis
Procedure: (§4) The minimum inhibitory concentration (MIC) was determined using the broth microdilution method according to the antimicrobial susceptibility testing standards of the clinical and laboratory standards institute ([Clinical and Laboratory Standards Institute [CLSI], 2012]). Ultrapure water and non-inoculated broth were used as controls. In one case, a final concentration of 10 μM vancomycin was included with the vancomycin analog or control antibiotic.

E. faecalis VRE 29 = experiment: MIC, broth microdilution, vancomycin-resistant E. faecalis VRE 29 (VanA); type: cell-based, Enterococcus faecalis
How it was run: as §1

E. coli XL-1 blue MRF' = experiment: MIC, broth microdilution, E. coli XL-1 blue MRF'; type: cell-based, Escherichia coli; settings: E. coli XL-1 blue MRF'
Procedure: as §4

[4] = tested on: S. aureus VSSA (ATCC 6538); experiment: MIC, broth microdilution, vancomycin-sensitive S. aureus (VSSA/MSSA, ATCC 6538); type: cell-based, Staphylococcus aureus
How it was run: as §1

[5] = tested on: Murine leukemia (L1210) cells; experiment: Cytostatic activity, L1210 cell proliferation; type: cell-based; settings: mean ± SD of three experiments; highest concentration tested 250 µM; 2 days; read-out: Toxicity (IC50) L1210
How it was run: as §3

[6] = tested on: human cervix carcinoma (HeLa) cells; experiment: Cytostatic activity, HeLa cell proliferation; type: cell-based; settings: mean ± SD of three experiments; highest concentration tested 250 µM; 4 days; read-out: Toxicity (IC50) HeLa
How it was run: as §3

E. faecalis VRE 6 = experiment: MIC, broth microdilution, vancomycin-resistant E. faecalis VRE 6 (VanA); type: cell-based, Enterococcus faecalis; settings: for MIC: read-out: MIC
How it was run: as §1

[7] = tested on: L1210, CEM and HeLa cell lines; experiment: Cytostatic activity, average or summary over L1210, CEM and HeLa; type: cell-based
How it was run: as §3

S. aureus VRSA = experiment: MIC, broth microdilution, vancomycin-resistant S. aureus (VRSA); type: cell-based, Staphylococcus aureus
How it was run: as §1

[8] = ratio of MIC of vancomycin and MIC of analogue

Q: With `C#Cc1ccc(NC(=O)CNC(=O)C2NC(=O)C3NC(=O)C(NC(=O)C4NC(=O)C(CC(N)=O)NC(=O)C(NC(=O)C(CC(C)C)NC)C(O)c5ccc(c(Cl)c5)Oc5cc4cc(c5OC4OC(CO)C(O)C(O)C4OC4CC(C)(N)C(O)C(C)O4)Oc4ccc(cc4Cl)C3O)c3ccc(O)c(c3)-c3c(O)cc(O)cc32)cc1` (stereo not shown) [Vanc-N] as the molecule, how does the “MIC-fold improvement vs. vancomycin” value (MRSA KS89; MRSA KS8, ratio of MIC of vancomycin and MIC of analogue) read?
A: 2

Q: What about the MIC (MRSA KS89; Staphylococcus aureus MRSA KS8, read-out: MIC) of the same molecule?
A: 0.39 µM (≈ 0.626 µg/mL)

Q: What about the MIC (E. faecalis VRE 37) of the same molecule?
A: 25 µM (≈ 40.1 µg/mL)

Q: What about the “MIC-fold improvement vs. vancomycin” value (MRSA KS1; MRSA KS1, ratio of MIC of vancomycin and MIC of analogue) of the same molecule?
A: 4

Q: And the MIC (MRSA KS1; Staphylococcus aureus MRSA KS1, read-out: MIC)?
A: 0.20 µM (≈ 0.321 µg/mL)

Q: And the “MIC-fold improvement vs. vancomycin” value (MRSA KS2; MRSA KS2, ratio of MIC of vancomycin and MIC of analogue)?
A: 2

Q: What about the MIC (MRSA KS2; Staphylococcus aureus MRSA KS2, read-out: MIC) of the same molecule?
A: 0.39 µM (≈ 0.626 µg/mL)

Q: What about the MIC (S. aureus VISA/HIP5827; Staphylococcus aureus VISA/HIP5827, read-out: MIC) of the same molecule?
A: 0.78 µM (≈ 1.25 µg/mL)

Q: And the “MIC-fold improvement vs. vancomycin” value (S. aureus VISA/HIP5827; VISA/HIP5827, ratio of MIC of vancomycin and MIC of analogue)?
A: 8

Q: And the “MIC-fold improvement vs. vancomycin” value [1]?
A: 29

Q: What about the “MIC-fold improvement vs. vancomycin” value [2] of the same molecule?
A: 5.6

Q: And the MICvanc/MICi (E. faecalis VSE 1; E. faecalis VSE 1, ratio of MIC of vancomycin and MIC of analogue)?
A: 16

Q: And the MIC (E. faecalis VSE 1; E. faecalis VSE 1)?
A: 0.10 µM (≈ 0.161 µg/mL)

Q: What about the MIC (E. faecalis VSE 1; Enterococcus faecalis VSE 1 (vancomycin-sensitive)) of the same molecule?
A: 0.10 µM (≈ 0.161 µg/mL)

Q: What about the “MIC-fold improvement vs. vancomycin” value (E. faecalis VSE 1; VSE 1, ratio of MIC of vancomycin and MIC of analogue) of the same molecule?
A: 16

Q: What about the IC50 [3] of the same molecule?
A: > 250 µM

Q: And the “MIC-fold improvement vs. vancomycin” value (MRSA KS6; MRSA KS6, ratio of MIC of vancomycin and MIC of analogue)?
A: 2

Q: And the MIC (MRSA KS6; Staphylococcus aureus MRSA KS6, read-out: MIC)?
A: 0.39 µM (≈ 0.626 µg/mL)

Q: And the MICvanc/MICi (E. faecalis VRE 53; E. faecalis VRE 53, ratio of MIC of vancomycin and MIC of analogue)?
A: 64

Q: What about the MIC (E. faecalis VRE 53; E. faecalis VRE 53) of the same molecule?
A: 6.25 µM (≈ 10 µg/mL)

Q: What about the MIC (E. faecalis VRE 53; Enterococcus faecalis VRE 53 (vancomycin-resistant)) of the same molecule?
A: 6.25 µM (≈ 10 µg/mL)

Q: And the “MIC-fold improvement vs. vancomycin” value (E. faecalis VRE 53; VRE 53, ratio of MIC of vancomycin and MIC of analogue)?
A: 64

Q: And the MIC (B. subtilis PSB3)?
A: 0.20 µM (≈ 0.321 µg/mL)

Q: And the MICvanc/MICi (B. subtilis PSB3; [8])?
A: 2

Q: And the MIC (E. faecalis VRE 29; Enterococcus faecalis VRE 29 (vancomycin-resistant), read-out: MIC)?
A: 6.25 µM (≈ 10 µg/mL)

Q: And the “MIC-fold improvement vs. vancomycin” value (E. faecalis VRE 29; VRE 29, ratio of MIC of vancomycin and MIC of analogue)?
A: 64

Q: What about the MIC (E. coli XL-1 blue MRF') of the same molecule?
A: 50 µM (≈ 80.3 µg/mL)

Q: What about the MICvanc/MICi (E. coli XL-1 blue MRF'; [8]) of the same molecule?
A: 2

Q: What about the MIC ([4]; Staphylococcus aureus VSSA, read-out: MIC) of the same molecule?
A: 0.10 µM (≈ 0.161 µg/mL)

Q: What about the “MIC-fold improvement vs. vancomycin” value ([4]; VSSA, ratio of MIC of vancomycin and MIC of analogue) of the same molecule?
A: 8

Q: And the IC50 [5]?
A: > 250 µM

Q: And the IC50 [6]?
A: > 250 µM

Q: What about the MICvanc/MICi (E. faecalis VRE 6; E. faecalis VRE 6, ratio of MIC of vancomycin and MIC of analogue) of the same molecule?
A: 64

Q: And the MIC (E. faecalis VRE 6; E. faecalis VRE 6)?
A: 3.13 µM (≈ 5.03 µg/mL)

Q: And the MIC (E. faecalis VRE 6; Enterococcus faecalis VRE 6 (vancomycin-resistant))?
A: 3.13 µM (≈ 5.03 µg/mL)

Q: And the “MIC-fold improvement vs. vancomycin” value (E. faecalis VRE 6; VRE 6, ratio of MIC of vancomycin and MIC of analogue)?
A: 64

Q: And the IC50 ([7]; average of L1210, CEM and HeLa, read-out: Toxicity (IC50) Average)?
A: > 250 µM

Q: And the IC50 ([7]; summary over the three cell lines, read-out: IC50 (L1210, CEM, HeLa), depending on the cell line used)?
A: > 250 µM

Q: And the MIC (S. aureus VRSA; Staphylococcus aureus VRSA, read-out: MIC)?
A: 1.56 µM (≈ 2.5 µg/mL)

Q: And the “MIC-fold improvement vs. vancomycin” value (S. aureus VRSA; VRSA, ratio of MIC of vancomycin and MIC of analogue)?
A: 64
